Laboratory results taken from PubChem BioAssay (NCI).
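Cells were grown in 96-well plates and exposed to each compound for 48 hours at five concentrations; endpoints were interpolated linearly between bracketing concentrations, or set to the highest concentration if not reached. The concentration for full growth arrest is given as TGI.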

How the values were obtained:
Experiment in all cases: NCI-60 cell line screen, 48 h
786-0 renal = test system: 786-0 renal
A549 NSCLC = test system: A549 NSCLC
ACHN renal = test system: ACHN renal
CAKI-1 renal = test system: CAKI-1 renal
COLO 205 colon = test system: COLO 205 colon
DLD-1 colon = test system: DLD-1 colon
DMS 114 small cell lung = test system: DMS 114 small cell lung
DMS 273 small cell lung = test system: DMS 273 small cell lung
EKVX NSCLC = test system: EKVX NSCLC
HCC-2998 colon = test system: HCC-2998 colon
HCT-116 colon = test system: HCT-116 colon
HCT-15 colon = test system: HCT-15 colon
HOP-18 NSCLC = test system: HOP-18 NSCLC
HOP-62 NSCLC = test system: HOP-62 NSCLC
IGROV1 ovarian = test system: IGROV1 ovarian
K-562 leukemia = test system: K-562 leukemia
KM12 colon = test system: KM12 colon
KM20L2 colon = test system: KM20L2 colon
LOX IMVI melanoma = test system: LOX IMVI melanoma
LXFL 529 NSCLC = test system: LXFL 529 NSCLC
M14 melanoma = test system: M14 melanoma
M19-MEL melanoma = test system: M19-MEL melanoma
MALME-3M melanoma = test system: MALME-3M melanoma
MOLT-4 leukemia = test system: MOLT-4 leukemia
NCI-H226 lung = test system: NCI-H226 lung
NCI-H23 lung = test system: NCI-H23 lung
NCI-H522 lung = test system: NCI-H522 lung
OVCAR-3 ovarian = test system: OVCAR-3 ovarian
OVCAR-4 ovarian = test system: OVCAR-4 ovarian
OVCAR-5 ovarian = test system: OVCAR-5 ovarian
OVCAR-8 ovarian = test system: OVCAR-8 ovarian
RPMI-8226 leukemia = test system: RPMI-8226 leukemia
RXF 393 renal = test system: RXF 393 renal
SF-268 CNS = test system: SF-268 CNS
SF-295 CNS = test system: SF-295 CNS
SF-539 CNS = test system: SF-539 CNS
SK-MEL-2 melanoma = test system: SK-MEL-2 melanoma
SK-MEL-28 melanoma = test system: SK-MEL-28 melanoma
SK-MEL-5 melanoma = test system: SK-MEL-5 melanoma
SN12C renal = test system: SN12C renal
SNB-19 CNS = test system: SNB-19 CNS
SNB-75 CNS = test system: SNB-75 CNS
SR leukemia = test system: SR leukemia
SW-620 colon = test system: SW-620 colon
TK-10 renal = test system: TK-10 renal
U251 CNS = test system: U251 CNS
UACC-257 melanoma = test system: UACC-257 melanoma
UACC-62 melanoma = test system: UACC-62 melanoma
UO-31 renal = test system: UO-31 renal
XF 498 CNS = test system: XF 498 CNS
A498 renal = test system: A498 renal
CCRF-CEM leukemia = test system: CCRF-CEM leukemia
HL-60(TB) leukemia = test system: HL-60(TB) leukemia
HOP-92 NSCLC = test system: HOP-92 NSCLC
HT29 colon = test system: HT29 colon
NCI-H460 lung = test system: NCI-H460 lung
SK-OV-3 ovarian = test system: SK-OV-3 ovarian
SNB-78 CNS = test system: SNB-78 CNS

Measured: TGI

O=C(c1ccccc1)c1nc2ccc(Cl)cc2c2c1Cc1ccccc1-2
not listed: A498 renal | CCRF-CEM leukemia | HL-60(TB) leukemia | HOP-92 NSCLC | HT29 colon | NCI-H460 lung | SK-OV-3 ovarian | SNB-78 CNS
> 100 µM: all other assays above

CC1=Nn2c(nnc2-c2ccc(Cl)cc2)NC(C)(C)C1
not listed: HCT-116 colon | OVCAR-8 ovarian | RXF 393 renal | SN12C renal | SNB-75 CNS | SR leukemia
> 100 µM: all other assays above
